Key:
Experiment in all cases: relative viability (nuclei count vs DMSO), 5 days (fraction); higher = more cells survive
CAL-12T = test system: CAL-12T
Summary of the method: (§1)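 Values are medians from duplicate plates. Each reflects relative viability, defined as the nuclei count of treated wells over that of vehicle wells. Lung cancer cell lines in 1536-well plates were pin-tool dosed one day after seeding with one drug alone or with a fixed anchor-drug dose plus five library-drug doses (not always all listed) in √10 steps, then fixed, stained and imaged at 4× after 5 days.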

ChaGo-K-1 = test system: ChaGo-K-1
Summary of the method: as §1

EMC-BAC-2 = test system: EMC-BAC-2
Summary of the method: as §1

HCC-366 = test system: HCC-366
Summary of the method: as §1

HCC-78 = test system: HCC-78
Summary of the method: as §1

HOP-62 = test system: HOP-62
Summary of the method: as §1

LC-2-ad = test system: LC-2-ad
Summary of the method: as §1

LK-2 = test system: LK-2
Summary of the method: as §1

NCI-H1355 = test system: NCI-H1355
Summary of the method: as §1

NCI-H1734 = test system: NCI-H1734
Summary of the method: as §1

NCI-H1993 = test system: NCI-H1993
Summary of the method: as §1

NCI-H2009 = test system: NCI-H2009
Summary of the method: as §1

NCI-H2085 = test system: NCI-H2085
Summary of the method: as §1

NCI-H2228 = test system: NCI-H2228
Summary of the method: as §1

NCI-H2347 = test system: NCI-H2347
Summary of the method: as §1

NCI-H2405 = test system: NCI-H2405
Summary of the method: as §1

NCI-H3122 = test system: NCI-H3122
Summary of the method: as §1

NCI-H596 = test system: NCI-H596
Summary of the method: as §1

NCI-H838 = test system: NCI-H838
Summary of the method: as §1

PC-14 = test system: PC-14
Summary of the method: as §1

RERF-LC-KJ = test system: RERF-LC-KJ
Summary of the method: as §1

SK-MES-1 = test system: SK-MES-1
Summary of the method: as §1

SW 1573 = test system: SW 1573
Summary of the method: as §1

`Cc1cnc(-c2cnc(NCCNc3ccc(C#N)cn3)nc2-c2ccc(Cl)cc2Cl)[nH]1` + CC(=O)Nc1cccc(-n2c(=O)n(C3CC3)c(=O)c3c(Nc4ccc(I)cc4F)n(C)c(=O)c(C)c32)c1 [Trametinib] (partner 0.02 µM) was tested, and the relative viability (CAL-12T; first compound 0.08 µM) was 0.357, the relative viability (CAL-12T; first compound 0.253 µM) was 0.306 and the relative viability (CAL-12T; first compound 0.8 µM) was 0.333. The relative viability (CAL-12T; first compound 2.53 µM) was 0.348, the relative viability (ChaGo-K-1; first compound 0.08 µM) was 0.891 and the relative viability (ChaGo-K-1; first compound 0.253 µM) was 0.761. The relative viability (ChaGo-K-1; first compound 0.8 µM) was 0.844, the relative viability (ChaGo-K-1; first compound 2.53 µM) was 0.824 and the relative viability (EMC-BAC-2; first compound 0.08 µM) was 1.06. The relative viability (EMC-BAC-2; first compound 0.253 µM) was 0.976, the relative viability (EMC-BAC-2; first compound 0.8 µM) was 0.853 and the relative viability (EMC-BAC-2; first compound 2.53 µM) was 0.887. The relative viability (HCC-366; first compound 0.08 µM) was 0.397, the relative viability (HCC-366; first compound 0.253 µM) was 0.308 and the relative viability (HCC-366; first compound 0.8 µM) was 0.292. It also gave a relative viability (HCC-366; first compound 2.53 µM) of 0.326, a relative viability (HCC-78; first compound 0.08 µM) of 0.876 and a relative viability (HCC-78; first compound 0.253 µM) of 0.669. For the same molecule, the relative viability (HCC-78; first compound 0.8 µM) was 0.621, the relative viability (HCC-78; first compound 2.53 µM) was 0.828 and the relative viability (HOP-62; first compound 0.08 µM) was 0.401. The relative viability (HOP-62; first compound 0.253 µM) was 0.375, the relative viability (HOP-62; first compound 0.8 µM) was 0.426 and the relative viability (HOP-62; first compound 2.53 µM) was 0.426. It also gave a relative viability (LC-2-ad; first compound 0.08 µM) of 0.998, a relative viability (LC-2-ad; first compound 0.8 µM) of 0.953 and a relative viability (LC-2-ad; first compound 2.53 µM) of 0.863. It also gave a relative viability (LK-2; first compound 0.08 µM) of 0.834, a relative viability (LK-2; first compound 0.253 µM) of 0.833 and a relative viability (LK-2; first compound 0.8 µM) of 0.841. It also gave a relative viability (LK-2; first compound 2.53 µM) of 0.955, a relative viability (NCI-H1355; first compound 0.08 µM) of 0.396 and a relative viability (NCI-H1355; first compound 0.253 µM) of 0.384. It also gave a relative viability (NCI-H1355; first compound 0.8 µM) of 0.41, a relative viability (NCI-H1355; first compound 2.53 µM) of 0.409 and a relative viability (NCI-H1734; first compound 0.08 µM) of 0.801. It also gave a relative viability (NCI-H1734; first compound 0.253 µM) of 0.641, a relative viability (NCI-H1734; first compound 0.8 µM) of 0.775 and a relative viability (NCI-H1734; first compound 2.53 µM) of 0.72. For the same molecule, the relative viability (NCI-H1993; first compound 0.08 µM) was 0.506, the relative viability (NCI-H1993; first compound 0.253 µM) was 0.536 and the relative viability (NCI-H1993; first compound 0.8 µM) was 0.454. It also gave a relative viability (NCI-H1993; first compound 2.53 µM) of 0.52, a relative viability (NCI-H2009; first compound 0.08 µM) of 0.372 and a relative viability (NCI-H2009; first compound 0.253 µM) of 0.273. It also gave a relative viability (NCI-H2009; first compound 0.8 µM) of 0.293, a relative viability (NCI-H2009; first compound 2.53 µM) of 0.384 and a relative viability (NCI-H2085; first compound 0.08 µM) of 0.596. For the same molecule, the relative viability (NCI-H2085; first compound 0.253 µM) was 0.524, the relative viability (NCI-H2085; first compound 0.8 µM) was 0.52 and the relative viability (NCI-H2085; first compound 2.53 µM) was 0.604. For the same molecule, the relative viability (NCI-H2228; first compound 0.08 µM) was 0.526, the relative viability (NCI-H2228; first compound 0.253 µM) was 0.511 and the relative viability (NCI-H2228; first compound 0.8 µM) was 0.506. It also gave a relative viability (NCI-H2228; first compound 2.53 µM) of 0.42, a relative viability (NCI-H2347; first compound 0.08 µM) of 0.296 and a relative viability (NCI-H2347; first compound 0.253 µM) of 0.272. For the same molecule, the relative viability (NCI-H2347; first compound 0.8 µM) was 0.297, the relative viability (NCI-H2347; first compound 2.53 µM) was 0.287 and the relative viability (NCI-H2405; first compound 0.08 µM) was 0.755. For the same molecule, the relative viability (NCI-H2405; first compound 0.253 µM) was 0.634, the relative viability (NCI-H2405; first compound 0.8 µM) was 0.611 and the relative viability (NCI-H2405; first compound 2.53 µM) was 0.439. For the same molecule, the relative viability (NCI-H3122; first compound 0.08 µM) was 0.262, the relative viability (NCI-H3122; first compound 0.8 µM) was 0.246 and the relative viability (NCI-H3122; first compound 2.53 µM) was 0.233. For the same molecule, the relative viability (NCI-H596; first compound 0.08 µM) was 0.877, the relative viability (NCI-H596; first compound 0.253 µM) was 0.704 and the relative viability (NCI-H596; first compound 0.8 µM) was 0.782. It also gave a relative viability (NCI-H596; first compound 2.53 µM) of 0.91, a relative viability (NCI-H838; first compound 0.08 µM) of 0.577 and a relative viability (NCI-H838; first compound 0.253 µM) of 0.499. The relative viability (NCI-H838; first compound 0.8 µM) was 0.591, the relative viability (NCI-H838; first compound 2.53 µM) was 0.685 and the relative viability (PC-14; first compound 0.08 µM) was 0.961. For the same molecule, the relative viability (PC-14; first compound 0.253 µM) was 0.713, the relative viability (PC-14; first compound 0.8 µM) was 0.904 and the relative viability (PC-14; first compound 2.53 µM) was 0.825. For the same molecule, the relative viability (RERF-LC-KJ; first compound 0.08 µM) was 0.951, the relative viability (RERF-LC-KJ; first compound 0.253 µM) was 0.847 and the relative viability (RERF-LC-KJ; first compound 0.8 µM) was 0.832. It also gave a relative viability (RERF-LC-KJ; first compound 2.53 µM) of 0.771, a relative viability (SK-MES-1; first compound 0.08 µM) of 0.548 and a relative viability (SK-MES-1; first compound 0.253 µM) of 0.54. For the same molecule, the relative viability (SK-MES-1; first compound 0.8 µM) was 0.676, the relative viability (SK-MES-1; first compound 2.53 µM) was 0.619 and the relative viability (SW 1573; first compound 0.08 µM) was 0.718. For the same molecule, the relative viability (SW 1573; first compound 0.253 µM) was 0.537, the relative viability (SW 1573; first compound 0.8 µM) was 0.575 and the relative viability (SW 1573; first compound 2.53 µM) was 0.337.
